Test system: Alopecurus myosuroides (ALOMY)
Assay: Pre-emergence biological efficacy, glasshouse pot test
Format: in vivo
Conditions: 312 h, 1000 g/ha, after 13 days, 100=total damage, 0=no damage, read-out: Percentage damage caused to weed species ALOMY
Procedure, shortened: (§1)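 Pots sown with weed seeds, sprayed 1 day after sowing with test compound in acetone/water (50:50) plus 0.5% Tween 20 at 250 or 1000 g/ha. Plants grown in glasshouse at 24/16° C day/night, 14 h light, 65% humidity, watered twice daily. Damage scored visually after 13 days (0 = none, 100 = total).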

| Structure (SMILES) | pest or weed control at 1000 g/ha [%] |
| --- | --- |
| COC(=O)c1nc(-c2cnn(C)c2)nc(N)c1Cl [Compound 2-71, 4-amino-5-chloro-6-methoxycarbonyl-2-(1-methyl-1H-pyrazol-4-yl)-pyrimidine] | 0 |
| COC(=O)c1nc(-c2ccc(C#N)nc2)nc(N)c1Cl [Compound 2-158, 4-amino-5-chloro-2-(2-cyanopyridin-5-yl)-6-methoxycarbonylpyrimidine] | 0 |
| CCOC(=O)c1nc(-c2ccccn2)nc(N)c1Cl [Compound 3-149, 4-amino-5-chloro-6-ethoxycarbonyl-2-pyridin-2-ylpyrimidine] | 0 |
| C=Cc1c(N)nc(-c2ccc(Cl)nc2)nc1C(=O)OC [Compound 68-156, 4-amino-2-(6-chloropyridin-3-yl)-5-ethenyl-6-methoxycarbonyl-pyrimidine] | 10 |

Test system: Amaranthus retroflexus (AMARE)
Assay: as above
Format: in vivo
Conditions: 312 h, 1000 g/ha, after 13 days, 100=total damage, 0=no damage, read-out: Percentage damage caused to weed species AMARE
Procedure, shortened: as §1

| Structure (SMILES) | pest or weed control at 1000 g/ha [%] |
| --- | --- |
| COC(=O)c1nc(-c2cnn(C)c2)nc(N)c1Cl [Compound 2-71, 4-amino-5-chloro-6-methoxycarbonyl-2-(1-methyl-1H-pyrazol-4-yl)-pyrimidine] | 0 |
| COC(=O)c1nc(-c2ccc(C#N)nc2)nc(N)c1Cl [Compound 2-158, 4-amino-5-chloro-2-(2-cyanopyridin-5-yl)-6-methoxycarbonylpyrimidine] | 0 |
| CCOC(=O)c1nc(-c2ccccn2)nc(N)c1Cl [Compound 3-149, 4-amino-5-chloro-6-ethoxycarbonyl-2-pyridin-2-ylpyrimidine] | 0 |
| C=Cc1c(N)nc(-c2ccc(Cl)nc2)nc1C(=O)OC [Compound 68-156, 4-amino-2-(6-chloropyridin-3-yl)-5-ethenyl-6-methoxycarbonyl-pyrimidine] | 100 |

Test system: Echinochloa crus-galli (ECHCG)
Assay: as above
Format: in vivo
Conditions: 312 h, 1000 g/ha, after 13 days, 100=total damage, 0=no damage, read-out: Percentage damage caused to weed species ECHCG
Procedure, shortened: as §1

| Structure (SMILES) | pest or weed control at 1000 g/ha [%] |
| --- | --- |
| COC(=O)c1nc(-c2cnn(C)c2)nc(N)c1Cl [Compound 2-71, 4-amino-5-chloro-6-methoxycarbonyl-2-(1-methyl-1H-pyrazol-4-yl)-pyrimidine] | 0 |
| COC(=O)c1nc(-c2ccc(C#N)nc2)nc(N)c1Cl [Compound 2-158, 4-amino-5-chloro-2-(2-cyanopyridin-5-yl)-6-methoxycarbonylpyrimidine] | 0 |
| CCOC(=O)c1nc(-c2ccccn2)nc(N)c1Cl [Compound 3-149, 4-amino-5-chloro-6-ethoxycarbonyl-2-pyridin-2-ylpyrimidine] | 0 |
| C=Cc1c(N)nc(-c2ccc(Cl)nc2)nc1C(=O)OC [Compound 68-156, 4-amino-2-(6-chloropyridin-3-yl)-5-ethenyl-6-methoxycarbonyl-pyrimidine] | 0 |

Test system: Ipomea hederaceae (IPOHE)
Assay: as above
Format: in vivo
Conditions: Ipomoea hederacea, 312 h, 1000 g/ha, after 13 days, 100=total damage, 0=no damage, read-out: Percentage damage caused to weed species IPOHE
Procedure, shortened: as §1

| Structure (SMILES) | pest or weed control at 1000 g/ha [%] |
| --- | --- |
| COC(=O)c1nc(-c2cnn(C)c2)nc(N)c1Cl [Compound 2-71, 4-amino-5-chloro-6-methoxycarbonyl-2-(1-methyl-1H-pyrazol-4-yl)-pyrimidine] | 0 |
| COC(=O)c1nc(-c2ccc(C#N)nc2)nc(N)c1Cl [Compound 2-158, 4-amino-5-chloro-2-(2-cyanopyridin-5-yl)-6-methoxycarbonylpyrimidine] | 0 |
| CCOC(=O)c1nc(-c2ccccn2)nc(N)c1Cl [Compound 3-149, 4-amino-5-chloro-6-ethoxycarbonyl-2-pyridin-2-ylpyrimidine] | 0 |
| C=Cc1c(N)nc(-c2ccc(Cl)nc2)nc1C(=O)OC [Compound 68-156, 4-amino-2-(6-chloropyridin-3-yl)-5-ethenyl-6-methoxycarbonyl-pyrimidine] | 40 |

Test system: Setaria faberi (SETFA)
Assay: as above
Format: in vivo
Conditions: 312 h, 1000 g/ha, after 13 days, 100=total damage, 0=no damage, read-out: Percentage damage caused to weed species SETFA
Procedure, shortened: as §1

| Structure (SMILES) | pest or weed control at 1000 g/ha [%] |
| --- | --- |
| COC(=O)c1nc(-c2cnn(C)c2)nc(N)c1Cl [Compound 2-71, 4-amino-5-chloro-6-methoxycarbonyl-2-(1-methyl-1H-pyrazol-4-yl)-pyrimidine] | 0 |
| COC(=O)c1nc(-c2ccc(C#N)nc2)nc(N)c1Cl [Compound 2-158, 4-amino-5-chloro-2-(2-cyanopyridin-5-yl)-6-methoxycarbonylpyrimidine] | 0 |
| CCOC(=O)c1nc(-c2ccccn2)nc(N)c1Cl [Compound 3-149, 4-amino-5-chloro-6-ethoxycarbonyl-2-pyridin-2-ylpyrimidine] | 0 |
| C=Cc1c(N)nc(-c2ccc(Cl)nc2)nc1C(=O)OC [Compound 68-156, 4-amino-2-(6-chloropyridin-3-yl)-5-ethenyl-6-methoxycarbonyl-pyrimidine] | 10 |

Test system: Solanum nigrum (SOLNI)
Assay: as above
Format: in vivo
Conditions: 312 h, 1000 g/ha, after 13 days, 100=total damage, 0=no damage, read-out: Percentage damage caused to weed species SOLNI
Procedure, shortened: as §1

| Structure (SMILES) | pest or weed control at 1000 g/ha [%] |
| --- | --- |
| COC(=O)c1nc(-c2cnn(C)c2)nc(N)c1Cl [Compound 2-71, 4-amino-5-chloro-6-methoxycarbonyl-2-(1-methyl-1H-pyrazol-4-yl)-pyrimidine] | 0 |
| COC(=O)c1nc(-c2ccc(C#N)nc2)nc(N)c1Cl [Compound 2-158, 4-amino-5-chloro-2-(2-cyanopyridin-5-yl)-6-methoxycarbonylpyrimidine] | 0 |
| CCOC(=O)c1nc(-c2ccccn2)nc(N)c1Cl [Compound 3-149, 4-amino-5-chloro-6-ethoxycarbonyl-2-pyridin-2-ylpyrimidine] | 0 |
| C=Cc1c(N)nc(-c2ccc(Cl)nc2)nc1C(=O)OC [Compound 68-156, 4-amino-2-(6-chloropyridin-3-yl)-5-ethenyl-6-methoxycarbonyl-pyrimidine] | 40 |

Test system: Alopecurus myosuroides (ALOMY)
Assay: Post-emergence biological efficacy, glasshouse pot test
Format: in vivo
Conditions: 312 h, 1000 g/ha, after 13 days, 100=total damage, 0=no damage, read-out: Percentage damage caused to weed species ALOMY
Procedure, shortened: (§2)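 Species sown in soil and grown 8 days in glasshouse (24/16 °C day/night, 14 h light, 65% humidity), then sprayed with compound in acetone/water (50:50) with 0.5% Tween 20 at 250 or 1000 g/ha. Damage scored visually after 13 days (0 = none, 100 = total).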

| Structure (SMILES) | pest or weed control at 1000 g/ha [%] |
| --- | --- |
| COC(=O)c1nc(-c2cnn(C)c2)nc(N)c1Cl [Compound 2-71, 4-amino-5-chloro-6-methoxycarbonyl-2-(1-methyl-1H-pyrazol-4-yl)-pyrimidine] | 0 |
| COC(=O)c1nc(-c2ccc(C#N)nc2)nc(N)c1Cl [Compound 2-158, 4-amino-5-chloro-2-(2-cyanopyridin-5-yl)-6-methoxycarbonylpyrimidine] | 0 |
| CCOC(=O)c1nc(-c2ccccn2)nc(N)c1Cl [Compound 3-149, 4-amino-5-chloro-6-ethoxycarbonyl-2-pyridin-2-ylpyrimidine] | 0 |
| C=Cc1c(N)nc(-c2ccc(Cl)nc2)nc1C(=O)OC [Compound 68-156, 4-amino-2-(6-chloropyridin-3-yl)-5-ethenyl-6-methoxycarbonyl-pyrimidine] | 0 |

Test system: Amaranthus retroflexus (AMARE)
Assay: as above
Format: in vivo
Conditions: 312 h, 1000 g/ha, after 13 days, 100=total damage, 0=no damage, read-out: Percentage damage caused to weed species AMARE
Procedure, shortened: as §2

| Structure (SMILES) | pest or weed control at 1000 g/ha [%] |
| --- | --- |
| COC(=O)c1nc(-c2cnn(C)c2)nc(N)c1Cl [Compound 2-71, 4-amino-5-chloro-6-methoxycarbonyl-2-(1-methyl-1H-pyrazol-4-yl)-pyrimidine] | 0 |
| COC(=O)c1nc(-c2ccc(C#N)nc2)nc(N)c1Cl [Compound 2-158, 4-amino-5-chloro-2-(2-cyanopyridin-5-yl)-6-methoxycarbonylpyrimidine] | 0 |
| CCOC(=O)c1nc(-c2ccccn2)nc(N)c1Cl [Compound 3-149, 4-amino-5-chloro-6-ethoxycarbonyl-2-pyridin-2-ylpyrimidine] | 0 |
| C=Cc1c(N)nc(-c2ccc(Cl)nc2)nc1C(=O)OC [Compound 68-156, 4-amino-2-(6-chloropyridin-3-yl)-5-ethenyl-6-methoxycarbonyl-pyrimidine] | 100 |

Test system: Echinochloa crus-galli (ECHCG)
Assay: as above
Format: in vivo
Conditions: 312 h, 1000 g/ha, after 13 days, 100=total damage, 0=no damage, read-out: Percentage damage caused to weed species ECHCG
Procedure, shortened: as §2

| Structure (SMILES) | pest or weed control at 1000 g/ha [%] |
| --- | --- |
| COC(=O)c1nc(-c2cnn(C)c2)nc(N)c1Cl [Compound 2-71, 4-amino-5-chloro-6-methoxycarbonyl-2-(1-methyl-1H-pyrazol-4-yl)-pyrimidine] | 0 |
| COC(=O)c1nc(-c2ccc(C#N)nc2)nc(N)c1Cl [Compound 2-158, 4-amino-5-chloro-2-(2-cyanopyridin-5-yl)-6-methoxycarbonylpyrimidine] | 0 |
| CCOC(=O)c1nc(-c2ccccn2)nc(N)c1Cl [Compound 3-149, 4-amino-5-chloro-6-ethoxycarbonyl-2-pyridin-2-ylpyrimidine] | 0 |
| C=Cc1c(N)nc(-c2ccc(Cl)nc2)nc1C(=O)OC [Compound 68-156, 4-amino-2-(6-chloropyridin-3-yl)-5-ethenyl-6-methoxycarbonyl-pyrimidine] | 0 |

Test system: Ipomea hederaceae (IPOHE)
Assay: as above
Format: in vivo
Conditions: Ipomoea hederacea, 312 h, 1000 g/ha, after 13 days, 100=total damage, 0=no damage, read-out: Percentage damage caused to weed species IPONE
Procedure, shortened: as §2

| Structure (SMILES) | pest or weed control at 1000 g/ha [%] |
| --- | --- |
| COC(=O)c1nc(-c2cnn(C)c2)nc(N)c1Cl [Compound 2-71, 4-amino-5-chloro-6-methoxycarbonyl-2-(1-methyl-1H-pyrazol-4-yl)-pyrimidine] | 30 |
| COC(=O)c1nc(-c2ccc(C#N)nc2)nc(N)c1Cl [Compound 2-158, 4-amino-5-chloro-2-(2-cyanopyridin-5-yl)-6-methoxycarbonylpyrimidine] | 20 |
| CCOC(=O)c1nc(-c2ccccn2)nc(N)c1Cl [Compound 3-149, 4-amino-5-chloro-6-ethoxycarbonyl-2-pyridin-2-ylpyrimidine] | 0 |
| C=Cc1c(N)nc(-c2ccc(Cl)nc2)nc1C(=O)OC [Compound 68-156, 4-amino-2-(6-chloropyridin-3-yl)-5-ethenyl-6-methoxycarbonyl-pyrimidine] | 50 |

Test system: Setaria faberi (SETFA)
Assay: as above
Format: in vivo
Conditions: 312 h, 1000 g/ha, after 13 days, 100=total damage, 0=no damage, read-out: Percentage damage caused to weed species SETFA
Procedure, shortened: as §2

| Structure (SMILES) | pest or weed control at 1000 g/ha [%] |
| --- | --- |
| COC(=O)c1nc(-c2cnn(C)c2)nc(N)c1Cl [Compound 2-71, 4-amino-5-chloro-6-methoxycarbonyl-2-(1-methyl-1H-pyrazol-4-yl)-pyrimidine] | 0 |
| COC(=O)c1nc(-c2ccc(C#N)nc2)nc(N)c1Cl [Compound 2-158, 4-amino-5-chloro-2-(2-cyanopyridin-5-yl)-6-methoxycarbonylpyrimidine] | 0 |
| CCOC(=O)c1nc(-c2ccccn2)nc(N)c1Cl [Compound 3-149, 4-amino-5-chloro-6-ethoxycarbonyl-2-pyridin-2-ylpyrimidine] | 0 |
| C=Cc1c(N)nc(-c2ccc(Cl)nc2)nc1C(=O)OC [Compound 68-156, 4-amino-2-(6-chloropyridin-3-yl)-5-ethenyl-6-methoxycarbonyl-pyrimidine] | 0 |

Test system: Solanum nigrum (SOLNI)
Assay: as above
Format: in vivo
Conditions: 312 h, 1000 g/ha, after 13 days, 100=total damage, 0=no damage, read-out: Percentage damage caused to weed species SOLNI
Procedure, shortened: as §2

| Structure (SMILES) | pest or weed control at 1000 g/ha [%] |
| --- | --- |
| COC(=O)c1nc(-c2cnn(C)c2)nc(N)c1Cl [Compound 2-71, 4-amino-5-chloro-6-methoxycarbonyl-2-(1-methyl-1H-pyrazol-4-yl)-pyrimidine] | 0 |
| COC(=O)c1nc(-c2ccc(C#N)nc2)nc(N)c1Cl [Compound 2-158, 4-amino-5-chloro-2-(2-cyanopyridin-5-yl)-6-methoxycarbonylpyrimidine] | 20 |
| CCOC(=O)c1nc(-c2ccccn2)nc(N)c1Cl [Compound 3-149, 4-amino-5-chloro-6-ethoxycarbonyl-2-pyridin-2-ylpyrimidine] | 0 |
| C=Cc1c(N)nc(-c2ccc(Cl)nc2)nc1C(=O)OC [Compound 68-156, 4-amino-2-(6-chloropyridin-3-yl)-5-ethenyl-6-methoxycarbonyl-pyrimidine] | 90 |

Test system: not given
Assay: not given
Conditions: not given

| Structure (SMILES) | melting point |
| --- | --- |
| COC(=O)c1nc(-c2cnn(C)c2)nc(N)c1Cl [Compound 2-71, 4-amino-5-chloro-6-methoxycarbonyl-2-(1-methyl-1H-pyrazol-4-yl)-pyrimidine] | 185 to 186 °C |
| COC(=O)c1nc(-c2ccc(C#N)nc2)nc(N)c1Cl [Compound 2-158, 4-amino-5-chloro-2-(2-cyanopyridin-5-yl)-6-methoxycarbonylpyrimidine] | 210 to 213 °C |
| CCOC(=O)c1nc(-c2ccccn2)nc(N)c1Cl [Compound 3-149, 4-amino-5-chloro-6-ethoxycarbonyl-2-pyridin-2-ylpyrimidine] | 176 to 180 °C (dec.) |
| C=Cc1c(N)nc(-c2ccc(Cl)nc2)nc1C(=O)OC [Compound 68-156, 4-amino-2-(6-chloropyridin-3-yl)-5-ethenyl-6-methoxycarbonyl-pyrimidine] | 194 to 195 °C |
